Results: US9375530B2 (Allergan, Inc., priority 2007, dated 2016)
Like-named read-outs stand apart in the source and are kept apart here.

Legend:
[1] = tested on: kidney water channels; conditions: as illustrated in FIG. 1
[2] = in vivo, cited from earlier work; for % Bioavailability: human
[3] = human, in vivo; cited from earlier work
[4] = in vivo; cited from earlier work

NC(=O)CC[C@@H]1NC(=O)[C@H](Cc2ccccc2)NC(=O)[C@H](Cc2ccc(O)cc2)NC(=O)CCSSC[C@@H](C(=O)N2CCC[C@H]2C(=O)N[C@H](CCCN=C(N)N)C(=O)NCC(N)=O)NC(=O)[C@H](CC(N)=O)NC1=O [desmopressin, 1-desamino-8-D-arginine vasopressin]
blood concentration sufficient to activate kidney water channels and induce an antidiuretic effect [1]: about 0.8 pg/ml | % Bioavailability ([2]; po): 0.1-0.15% | % Bioavailability ([2]; sc): Subcutaneous (±90) % | ranges for peak blood levels ([2]; po): 10-20 fold | half life [3]: 1.5 to 2.0 h | undesirable side-effects [4]: high incidences of hyponatremia
